For assay [1], the system named is linearized pUC19 plasmid DNA. The assay is described as follows: Melting temperature assay. To be noted: 100 or 500 μM for 3 h. The assay is classed as biochemical. As to the method: (§1) Columns, mean; error bars, SD; n=2 independent analyses. For (A) and (C), points, mean; error bars, SD; n=3 technical replicates.
Melting Temperature Assay. Linearized pUC19 DNA (750 ng), prepared as described above, was incubated with the indicated concentration of either MMS or KL-50 adjusted in a final volume of 18 μL in 100 mM Tris buffer (pH 7.4) for 3 h. Drug stock concentrations were made in DMSO such that each reaction contained a fixed 5% DMSO concentration. Afterwards, 1 μL each of 20×SYBR Green dye (Invitrogen) and 20×ROX reference dye (Invitrogen) was added and melting temperature analysis was run on a StepOnePlus RT PCR System (Applied Biosciences) to generate melting temperature curves.

Assay [2] has as its system PEO4 (BRCA2+) and PEO1 (BRCA2−/−) cells. The assay is described as follows: Short-term viability assay, PEO1/PEO4 model +/- O6BG. Particulars: PE01/4 model. The assay is classed as cell-based, human. As to the method: FIGS. 8A-8K. (FIG. 8A) Change in percent cells with 1 micronuclei from baseline (DMSO control) after treatment as in FIGS. 5A and 5C. […] (FIG. 8B) Short-term viability assay curves for KL-50 in PD20 cells, deficient in FANCD2 (FANCD2−/−) or complemented with FANCD2 (+FANCD2). (FIG. 8C) Short-term viability assay curves for KL-50 in PEO4 (BRCA2+) and PEO1 (BRCA2−/−) cells pre-treated with 0.01% DMSO control or 10 μM O^6BG (+O^6BG) for 1 h prior to KL-50 addition. (FIG. 8D) Short-term viability assay curves for KL-50 in DLD1 BRCA2+/− and BRCA2−/−cells pre-treated with 0.01% DMSO control or 10 μM O^6BG (+O^6BG) for 1 h prior to KL-50 addition. For FIGS. 8B-8D, points, mean; error bars, SD; n=3 technical replicates. […] The % FANCD2 ubiquitination (% FANCD2 Ub) is quantified as the background-corrected integrated band intensity of the upper band divided by the sum of the background-corrected integrated band intensities of the upper and lower bands. […]
Short-term Cell Viability Assay. […] Cells were imaged on a Cytation 3 imaging reader (BioTek) and quantified using CellProfiler software. For in vitro short-term growth delay experiments, IC50 values were determined from the nonlinear regression equation, [inhibitor] vs normalized response with variable slope.

Assay [3] has as its system isogenic mouse embryonic fibroblasts (MEFs) proficient or deficient in XPA. Put plainly: Short-term cell viability, XPA proficient or deficient MEFs. The assay is classed as cell-based. Particulars: with or without O6BG-induced MGMT depletion. The method, then: as §1
The potential for alternative mechanisms of action for KL-50 were probed implicating nucleotide excision repair (NER), base excision repair (BER), reactive oxygen species (ROS), and DNA duplex destabilization.
Short-term Cell Viability Assay. Cells were seeded in 96-well plates at 1000 or 2000 cells/well and allowed to adhere at 23° C. for 60 min and then incubated overnight at 37° C. Cells were treated with indicated concentrations of compounds in triplicate for 4-6 days prior to fixation with 3.7% paraformaldehyde and nuclear staining with 1 μg/mL Hoechst 33342 dye. Cells were imaged on a Cytation 3 imaging reader (BioTek) and quantified using CellProfiler software. For in vitro short-term growth delay experiments, IC50 values were determined from the nonlinear regression equation, [inhibitor] vs normalized response with variable slope.

Assay [4] has as its system DLD1 BRCA2+/− and BRCA2−/− cells. The assay is described as follows: Short-term viability assay, DLD1 BRCA2 isogenic model +/- O6BG. Format: cell-based, human. As to the method:
(§2) FIGS. 8A-8K. (FIG. 8A) Change in percent cells with 1 micronuclei from baseline (DMSO control) after treatment as in FIGS. 5A and 5C. […] (FIG. 8B) Short-term viability assay curves for KL-50 in PD20 cells, deficient in FANCD2 (FANCD2−/−) or complemented with FANCD2 (+FANCD2). (FIG. 8C) Short-term viability assay curves for KL-50 in PEO4 (BRCA2+) and PEO1 (BRCA2−/−) cells pre-treated with 0.01% DMSO control or 10 μM O^6BG (+O^6BG) for 1 h prior to KL-50 addition. (FIG. 8D) Short-term viability assay curves for KL-50 in DLD1 BRCA2+/− and BRCA2−/−cells pre-treated with 0.01% DMSO control or 10 μM O^6BG (+O^6BG) for 1 h prior to KL-50 addition. For FIGS. 8B-8D, points, mean; error bars, SD; n=3 technical replicates. […] Change in percent cells with 1 micronuclei from baseline (DMSO control) after treatment with olaparib (10 μM) for 48 h in LN229 MGMT+/−, MMR+/−cells. […] Western blot analysis of FANCD2 ubiquitination in LN229 MGMT+/−, MMR+/−cells and PD20 FANCD2-deficient cells, complemented with empty vector (FANCD2+EV), wildtype FANCD2 (PD20+FD2) or ubiquitination-mutant FANCD2 (PD20+KR). The % FANCD2 ubiquitination (% FANCD2 Ub) is quantified as the background-corrected integrated band intensity of the upper band divided by the sum of the background-corrected integrated band intensities of the upper and lower bands. The fold change in % FANCD2 ubiquitination is presented for each cell line relative to DMSO-treated cells. Vinculin serves as loading control. For 8J-8K, points, mean; error bars, SD; n=3 technical replicates.
(§3) Short-term Cell Viability Assay. Cells were seeded in 96-well plates at 1000 or 2000 cells/well and allowed to adhere at 23° C. for 60 min and then incubated overnight at 37° C. […] Cells were imaged on a Cytation 3 imaging reader (BioTek) and quantified using CellProfiler software. For in vitro short-term growth delay experiments, IC50 values were determined from the nonlinear regression equation, [inhibitor] vs normalized response with variable slope.

Assay [5] concerns PD20 cells, deficient in FANCD2 (FANCD2−/−) or complemented with FANCD2. Put plainly: Short-term viability assay, PD20 cells. The assay is classed as cell-based, human. Particulars: PD20 FANCD2−/− vs +FANCD2. The method, then:
as §2, §3

Assay [6] deals with large MGMT−/MMR+ and MGMT−/MSH6− LN229 flank tumors. Put plainly: Flank tumor third study: large tumors. Format: in vivo, mouse. To be noted: 25 mg/kg PO MWF x 3 weeks. An excerpt:
FIGS. 9A-91: KL-50 is safe and efficacious on both MGMT−/MMR+ and MGMT−/MMR-flank tumors over a wide range of treatment regimens and conditions. […] (FIG. 9C) Mean body weight of mice during LN229 flank tumor experiments. (FIG. 9D) Kaplan-Meier analysis of LN229 MGMT−/MMR− xenograft flank tumor-bearing mice to determine survival rate based on death, removal from study if mouse body weight loss exceeded 20% of initial body weight, or if tumor volume exceeded 2000 mm^3. […] (FIGS. 9H-91) Xenograft LN229 MGMT−/MMR+ and LN229 MGMT−/MSH6—flank tumors with a larger average starting tumor size of −400 mm^3 and −350 mm^3 respectively, treated with 3 weekly cycles of P.O administration of 10% cyclodextrin (n=4) or KL-50 (n=4, 3 cycles of 25 mg/kg on Monday, Wednesday, and Friday). The study period was limited by control groups which had to be euthanized for exceeding the ethical maximum allowed tumor size, thus ending the study. In all panels, points, mean; error bars, SEM; *, P<0.05; **, P<0.01; ***, P<0.001; ****, P<0.0001; ns, not significant.
The third study involved MGMT−/MMR+ and MGMT−/MSH6—(shMSH6) LN229 cells. Mice tumors were allowed to grow to a larger average starting volume of −350 mm^3 before they were randomized and administered either KL-50 (25 mg/kg MWF×3 weeks) or vehicle (10% cyclodextrin) by oral gavage. […]

With `NC(=O)c1ncn2c(=O)n(CCF)nnc12` [KL-50], the “change in DNA melting temperature” value in assay [1] is listed as “comparable changes in measured DNA melting temperature”. Besides, the “therapeutic index (TI)” value in assay [2] came out at 62 fold. Besides, in assay [3], the “sensitivity of XPA-deficient vs proficient MEFs” value was “no differential sensitivity”. In addition, the “therapeutic index (TI), ratio of IC50 values in MGMT+/BRCA2+ cells compared to MGMT−/BRCA2− cells” value in assay [4] (DLD1 isogenic model) was ~600 fold. For the same compound, the “effect of BRCA2 loss on toxicity” value in assay [4] (two MGMT-proficient cell models, following MGMT depletion via O6BG) was “BRCA2 loss enhanced the toxicity”. The “sensitivity of FANCD2-deficient cells” value in assay [5] was “hypersensitive”. For the same compound, the “growth of large (350-400 mm^3) tumors” value in assay [6] was “potently suppressed the growth”.

The values above are taken from patent US20240294478A1, “ANTI-CANCER COMPOUNDS AND METHODS OF USE” (YALE UNIVERSITY, priority 2021, published 2024).
